Laboratory results published in US8318949B2, “Organic compounds” (Novartis AG, priority 2008, dated 2012).

SMILES | melting point [°C]
Cc1nc(N2CCN(Cc3ccc(F)cc3)C2=O)sc1C(=O)NCc1csc(C(C)C)n1 [Example 16.4, 2-(3-(4-fluorobenzyl)-2-oxoimidazolidin-1-yl)-N-((2-isopropylthiazol-4-yl)methyl)-4-methylthiazole-5-carboxamide] | 170 to 172
Cc1nc(-n2cnn(Cc3ccc(F)cc3)c2=O)sc1C(=O)NCc1cccc(N(C)C)c1 [Example 16.5, N-(3-(dimethylamino)benzyl)-2-(1-(4-fluorobenzyl)-5-oxo-1H-1,2,4-triazol-4(5H)-yl)-4-methylthiazole-5-carboxamide] | 149 to 151
Cc1nc(-n2cnn(CC3CC3(F)F)c2=O)sc1C(N)=O (centres unmarked) [Example 16.6, 2-(1-((2,2-difluorocyclopropyl)methyl)-5-oxo-1H-1,2,4-triazol-4(5H)-yl)-4-methylthiazole-5-carboxamide] | 273 to 275
Cc1nc(-n2cnn(Cc3ccc(F)cc3)c2=O)sc1C(=O)NCc1csc(C(C)C)n1 [Example 16.7] | 151 to 153
Cc1nc(N2CCN(CC3CC3(F)F)C2=O)sc1-c1cc[nH]n1 (centres unmarked) [Example 17, 1-((2,2-difluorocyclopropyl)methyl)-3-(4-methyl-5-(1H-pyrazol-3-yl)thiazol-2-yl)imidazolidin-2-one] | 227 to 230
Cc1nc(-n2cnn(Cc3ccc(F)cc3)c2=O)sc1-c1nn[nH]n1 [Example 18, 1-(4-fluorobenzyl)-4-(4-methyl-5-(2H-tetrazol-5-yl)thiazol-2-yl)-1H-1,2,4-triazol-5(4H)-one] | 136 to 139

Other lines, results leading:

melting point [°C] | SMILES
185 to 186 | Cc1nc(N2CCN(CCCC(F)(F)F)C2=O)sc1-c1cc[nH]n1 [Example 17.1, 1-(4-methyl-5-(1H-pyrazol-3-yl)thiazol-2-yl)-3-(4,4,4-trifluorobutyl)imidazolidin-2-one]
145 to 149 | Cc1nc(N2CCN(Cc3ccc(F)cc3)C2=O)sc1-c1nn[nH]n1 [Example 18.1, 1-(4-fluorobenzyl)-3-(4-methyl-5-(2H-tetrazol-5-yl)thiazol-2-yl)imidazolidin-2-one]
